ChEMBL document CHEMBL2157957, “Strategies to mitigate the bioactivation of 2-anilino-7-aryl-pyrrolo[2,1-f][1,2,4]triazines: identification of orally bioavailable, efficacious ALK inhibitors” (J Med Chem, 2012)

How the values were obtained:
[1] = target: ALK tyrosine kinase receptor (Homo sapiens, UniProt Q9UM73); experiment: Inhibition of GST-tagged human ALK cytoplasmic domain (1058-1620) expressed in Sf21 insect cells using GST-tagged human recombinant PLC-gamma/substrate by ELISA
[2] = Half life in human liver microsomes at 0.5 uM preincubated for 10 mins before NADPH and UDPGA challenge; assay type: ADME, Microsome
[3] = target: NPM/ALK (Nucleophosmin/ALK tyrosine kinase receptor) (Homo sapiens, UniProt Q9UM73); experiment: Inhibition of human NPM-ALK phosphorylation using 4-MeUP substrate by cell based assay
[4] = Half life in CD1 mouse liver microsomes at 0.5 uM preincubated for 10 mins before NADPH and UDPGA challenge; assay type: ADME, Microsome
[5] = Half life in Sprague-Dawley rat liver microsomes at 0.5 uM preincubated for 10 mins before NADPH and UDPGA challenge; assay type: ADME, Microsome
[6] = Half life in monkey liver microsomes at 0.5 uM preincubated for 10 mins before NADPH and UDPGA challenge; assay type: ADME, Macaca mulatta, Microsome; details: rhesus monkey
[7] = Half life in rat liver S9 fraction; assay type: ADME, subcellular
[8] = AUC (0 to t) in Sprague-Dawley rat at 5 mg/kg, po; assay type: ADME, organism-based; set-up: dose 5 mg/kg, route oral; details: plasma
[9] = Oral bioavailability in Sprague-Dawley rat at 5 mg/kg; assay type: ADME, organism-based; details: in vivo
Insulin receptor = Insulin receptor (Homo sapiens, UniProt P06213); experiment: Inhibition of IR
[10] = Half life in Sprague-Dawley rat at 1 mg/kg, iv; assay type: ADME, organism-based; set-up: dose 1 mg/kg, route intravenous; details: in vivo
[11] = Clearance in Sprague-Dawley rat at 1 mg/kg, iv; assay type: ADME, organism-based; set-up: dose 1 mg/kg, route intravenous; details: in vivo

Insulin receptor, sequence (P06213 28-758 limits assumed): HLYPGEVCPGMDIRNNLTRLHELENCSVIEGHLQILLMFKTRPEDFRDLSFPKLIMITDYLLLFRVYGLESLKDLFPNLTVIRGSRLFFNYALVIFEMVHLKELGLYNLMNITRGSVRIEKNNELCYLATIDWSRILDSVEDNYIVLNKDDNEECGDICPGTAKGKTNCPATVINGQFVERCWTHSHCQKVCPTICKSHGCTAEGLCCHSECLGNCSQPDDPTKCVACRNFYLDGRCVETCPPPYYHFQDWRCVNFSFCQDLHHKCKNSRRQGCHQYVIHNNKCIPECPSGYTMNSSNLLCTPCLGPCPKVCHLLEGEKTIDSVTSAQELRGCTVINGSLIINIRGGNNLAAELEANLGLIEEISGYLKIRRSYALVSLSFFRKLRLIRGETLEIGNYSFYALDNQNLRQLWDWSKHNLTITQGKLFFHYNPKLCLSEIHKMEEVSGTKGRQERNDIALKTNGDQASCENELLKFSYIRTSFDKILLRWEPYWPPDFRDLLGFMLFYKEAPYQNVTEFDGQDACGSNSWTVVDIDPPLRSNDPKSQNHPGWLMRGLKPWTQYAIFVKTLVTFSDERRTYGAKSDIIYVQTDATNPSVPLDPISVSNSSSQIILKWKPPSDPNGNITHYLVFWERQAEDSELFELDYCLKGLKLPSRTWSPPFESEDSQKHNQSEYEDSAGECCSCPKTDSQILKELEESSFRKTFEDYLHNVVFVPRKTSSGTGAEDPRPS
Insulin receptor, sequence (P06213 763-1382 limits assumed): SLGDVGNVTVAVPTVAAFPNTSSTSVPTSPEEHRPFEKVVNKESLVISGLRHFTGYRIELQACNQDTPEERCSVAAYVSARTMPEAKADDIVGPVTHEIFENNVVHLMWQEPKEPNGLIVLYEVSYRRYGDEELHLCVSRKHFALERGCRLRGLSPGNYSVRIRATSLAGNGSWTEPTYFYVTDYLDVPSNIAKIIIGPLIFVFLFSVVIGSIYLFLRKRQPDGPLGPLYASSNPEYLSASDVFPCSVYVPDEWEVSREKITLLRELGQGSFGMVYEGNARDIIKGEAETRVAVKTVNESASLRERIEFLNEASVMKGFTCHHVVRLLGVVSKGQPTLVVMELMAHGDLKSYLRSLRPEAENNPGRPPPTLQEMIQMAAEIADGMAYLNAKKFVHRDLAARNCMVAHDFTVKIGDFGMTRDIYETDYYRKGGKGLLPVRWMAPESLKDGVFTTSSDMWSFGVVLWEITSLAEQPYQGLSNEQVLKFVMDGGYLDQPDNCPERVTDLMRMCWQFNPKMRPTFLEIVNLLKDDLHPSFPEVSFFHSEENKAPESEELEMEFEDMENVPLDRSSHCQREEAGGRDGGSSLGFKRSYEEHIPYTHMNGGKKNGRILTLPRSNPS
NPM/ALK (Nucleophosmin/ALK tyrosine kinase receptor), sequence (Q9UM73 whole entry): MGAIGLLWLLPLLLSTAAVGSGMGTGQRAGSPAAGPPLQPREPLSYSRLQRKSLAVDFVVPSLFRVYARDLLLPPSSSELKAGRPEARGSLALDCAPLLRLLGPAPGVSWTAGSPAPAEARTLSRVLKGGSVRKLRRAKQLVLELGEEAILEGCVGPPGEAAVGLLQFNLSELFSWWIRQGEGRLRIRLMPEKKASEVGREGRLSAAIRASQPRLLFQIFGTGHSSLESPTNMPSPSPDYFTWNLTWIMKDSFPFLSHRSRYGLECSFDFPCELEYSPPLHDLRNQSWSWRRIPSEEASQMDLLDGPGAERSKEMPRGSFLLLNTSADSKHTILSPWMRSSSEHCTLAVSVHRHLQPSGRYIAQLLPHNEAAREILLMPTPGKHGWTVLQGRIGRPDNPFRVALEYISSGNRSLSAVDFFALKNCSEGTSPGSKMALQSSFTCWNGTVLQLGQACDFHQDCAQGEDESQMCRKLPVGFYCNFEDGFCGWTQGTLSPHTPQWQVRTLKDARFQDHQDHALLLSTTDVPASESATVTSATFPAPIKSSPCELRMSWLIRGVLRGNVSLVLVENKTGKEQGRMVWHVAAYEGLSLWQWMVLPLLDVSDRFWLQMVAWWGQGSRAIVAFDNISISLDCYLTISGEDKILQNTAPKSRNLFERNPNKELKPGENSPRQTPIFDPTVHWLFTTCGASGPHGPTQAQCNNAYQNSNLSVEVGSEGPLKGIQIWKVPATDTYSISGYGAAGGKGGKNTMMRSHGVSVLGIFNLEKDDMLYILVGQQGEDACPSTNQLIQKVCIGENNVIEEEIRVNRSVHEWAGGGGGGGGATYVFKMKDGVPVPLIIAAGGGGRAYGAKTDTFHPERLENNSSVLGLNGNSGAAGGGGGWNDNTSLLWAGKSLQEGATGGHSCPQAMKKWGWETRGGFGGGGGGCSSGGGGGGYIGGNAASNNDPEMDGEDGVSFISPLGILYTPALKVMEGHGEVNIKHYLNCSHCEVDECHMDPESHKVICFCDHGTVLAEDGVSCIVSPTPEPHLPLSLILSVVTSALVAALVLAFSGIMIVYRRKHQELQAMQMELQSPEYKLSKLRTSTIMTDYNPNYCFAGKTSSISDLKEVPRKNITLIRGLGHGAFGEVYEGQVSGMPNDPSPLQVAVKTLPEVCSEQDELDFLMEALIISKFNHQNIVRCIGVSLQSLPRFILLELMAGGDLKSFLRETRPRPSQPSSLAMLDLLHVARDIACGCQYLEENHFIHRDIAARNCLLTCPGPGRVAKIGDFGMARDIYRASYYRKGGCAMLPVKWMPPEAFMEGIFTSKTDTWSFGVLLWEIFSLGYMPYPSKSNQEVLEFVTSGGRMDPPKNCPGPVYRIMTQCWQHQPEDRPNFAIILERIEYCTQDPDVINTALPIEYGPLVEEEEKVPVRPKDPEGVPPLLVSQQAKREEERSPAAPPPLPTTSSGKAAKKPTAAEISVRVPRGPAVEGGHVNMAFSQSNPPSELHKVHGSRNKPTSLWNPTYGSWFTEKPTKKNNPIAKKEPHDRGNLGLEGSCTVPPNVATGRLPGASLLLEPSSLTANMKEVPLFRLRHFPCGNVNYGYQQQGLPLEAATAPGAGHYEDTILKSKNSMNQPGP
NPM/ALK (Nucleophosmin/ALK tyrosine kinase receptor), sequence (P06748 whole entry, further chain): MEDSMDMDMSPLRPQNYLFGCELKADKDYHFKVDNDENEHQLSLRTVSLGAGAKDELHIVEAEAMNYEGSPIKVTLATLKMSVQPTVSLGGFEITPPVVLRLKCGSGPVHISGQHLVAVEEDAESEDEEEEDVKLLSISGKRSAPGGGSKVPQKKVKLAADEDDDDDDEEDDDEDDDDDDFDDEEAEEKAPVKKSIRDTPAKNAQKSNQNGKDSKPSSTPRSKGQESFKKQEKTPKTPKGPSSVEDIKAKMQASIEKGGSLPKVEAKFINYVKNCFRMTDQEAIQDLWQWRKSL
ALK tyrosine kinase receptor, sequence (Q9UM73 whole entry, the tested form may be a part): as the sequence (Q9UM73 whole entry) above

Row | Structure (SMILES) | IC50 [1] [nM] | half-life at 0.5 µM [2] [min] | IC50 [3] [nM] | half-life at 0.5 µM [4] [min] | half-life at 0.5 µM [5] [min] | half-life at 0.5 µM [6] [min] | half-life [7] [min] | AUC(0-t) [8] [ng·h/mL] | bioavailability [9] [%] | IC50 (Insulin receptor) [nM] | half-life [10] [min] | clearance [11] [mL/min/kg]
1 | C[C@H](O)CN1CCN(c2cc(F)c(Nc3ncc4ccc(-c5ccccc5N(C)S(C)(=O)=O)n4n3)cc2F)CC1 | 91 |  |  |  |  |  |  |  |  |  |  | 
2 | COc1ccc(N2CCN(C)CC2)cc1Nc1ncc2ccc(-c3ccccc3N(C)S(C)(=O)=O)n2n1 | 28 |  |  |  |  |  |  |  |  |  |  | 
3 | COc1ccc(N2CCN(C)CC2)cc1Nc1ncc2ccc(-c3ccccc3OC)n2n1 | 187 |  |  |  |  |  |  |  |  |  |  | 
4 | COc1cc(C2CCNCC2)ccc1Nc1ncc2ccc(-c3ccccc3N(C)S(C)(=O)=O)n2n1 | 10 | 7 | 40 | > 40 | 22 | < 5 |  |  |  |  |  | 
5 | COc1cc(C2CCN(C)CC2)ccc1Nc1ncc2ccc(-c3ccccc3OC)n2n1 | 6 |  | 70 |  |  |  |  |  | 3 | 222 | 84 | 29
6 | COc1cc(C2CCN(C(=O)C(C)(C)N)CC2)ccc1Nc1ncc2ccc(-c3ccccc3OC)n2n1 | 7 |  | 150 |  | > 40 |  | > 40 |  | 13 | 579 | 156 | 25
7 | COc1cc(C2CCN(C(=O)C3CCN3)CC2)ccc1Nc1ncc2ccc(-c3ccccc3OC)n2n1 (racemic) | 11 |  | 200 |  | > 40 |  | > 40 |  | 15 | 335 | 150 | 32

Next, values leading:

Row | IC50 [1] [nM] | half-life at 0.5 µM [2] [min] | IC50 [3] [nM] | half-life at 0.5 µM [4] [min] | half-life at 0.5 µM [5] [min] | half-life at 0.5 µM [6] [min] | half-life [7] [min] | AUC(0-t) [8] [ng·h/mL] | bioavailability [9] [%] | IC50 (Insulin receptor) [nM] | half-life [10] [min] | clearance [11] [mL/min/kg] | Structure (SMILES)
8 | 6 | < 5 | 60 | > 40 | 21 | < 5 |  |  |  |  |  |  | COc1cc(C2CCN(CCO)CC2)ccc1Nc1ncc2ccc(-c3ccccc3N(C)S(C)(=O)=O)n2n1
9 | 6 | < 5 | 70 | > 40 | 11 | < 5 |  |  |  |  |  |  | COc1cc(C2CCN(C[C@@H](C)O)CC2)ccc1Nc1ncc2ccc(-c3ccccc3N(C)S(C)(=O)=O)n2n1
10 | 3.4 | > 40 | 100 | > 40 | > 40 | 21 | > 40 | 11 | < 1 |  |  |  | COc1cc(C2CCN(C[C@@H](C)O)CC2)ccc1Nc1ncc2ccc(-c3ccccc3OC)n2n1
11 | 2.9 |  | 30 |  | > 40 |  | > 40 |  | 15 | 164 | 120 | 39 | COc1cc(C2CCN(C[C@H](O)CO)CC2)ccc1Nc1ncc2ccc(-c3ccccc3OC)n2n1
12 | 3 |  | 80 |  | > 40 |  | > 40 |  | 16 | 149 | 84 | 62 | COc1cc(C2CCN(CC(O)CF)CC2)ccc1Nc1ncc2ccc(-c3ccccc3OC)n2n1 (racemic)
